From US20160095843A1, “PYRAZOLOPYRROLIDINE DERIVATIVES AND THEIR USE IN THE TREATMENT OF DISEASE” (NOVARTIS AG, priority 2013, published 2016) come the findings set out here.

For one assay, the system named is MV-4-11 cells. As to the kind of experiment: Cell growth inhibition assay (CellTiter-Glo), MV-4-11. It counts as cell-based. Conditions: Homo sapiens, MV4-11. The procedure: (§1) Cell Growth Inhibition Assay
(§2) The human leukemia cell lines MV-4-11, THP-1 and K-562 were employed to characterize the effect of BET inhibitors on cellular proliferation and viability. Cells were obtained from the American Type Culture Collection (ATCC) and cultured at 37° C. in a humidified 5% CO2 incubator in the following media: MV-4-11: DMEM high glucose (Animed #1-26F01-I), 10% FCS (Animed #2-01F26-I), 4 mM L-Glutamine (Animed #5-10K50), 1 mM Sodium Pyruvate (Animed # G03625P), 1× Penicillin-Streptomycin (Animed # F12478P); K-562: Iscove's MEM (Animed #1-28F16-I), 10% FCS (Animed #2-01F26-I), 4 mM L-Glutamine (Animed #5-10K50), 1× Penicillin-Streptomycin (Animed # F12478P); THP-1: RPMI-1640 (Animed #1-41F01-I), 10% FCS (Animed #2-01F26-I), 2 mM L-Glutamine (Animed #5-10K50), 10 mM HEPES (Animed #5-31F100), 1 mM Sodium Pyruvate (Animed # G03625P), 1× Penicillin-Streptomycin (Animed # F12478P). The AML lines MV-4-11 and THP-1 are very sensitive to BET inhibitors and show massive cell death upon BET inhibition (Zuber et al., Nature, 478 (2011), 524-8). Compound-mediated suppression of cell proliferation/viability was assessed by quantification of cellular ATP levels using the CellTiter-Glo (CTG) reagent (Promega). Briefly, cells were seeded in 20 μl fresh medium into 384-well plates, followed by addition of 5 μL medium containing compound dilutions at 5-fold their final intended concentration. Dose-response effects were assessed by 3-fold serial dilutions of the test compound, starting at 10 μM. Following incubation of the cells for 4 days at 37° C. and 5% CO2, the effect of inhibitors on cell viability was quantified following addition of 20 μl CTG and luminescence quantification (integration time: 100 ms) as per vendor manual, using a correspondingly equipped Tecan M200 multi-mode platereader (TECAN, Switzerland). For data analysis, the assay background value determined in wells containing medium, but no cells, was subtracted from all data points. To enable differentiation of cytotoxic from cytostatic compounds, the number of viable cells is assessed relative to that observed at the time of compound addition using a separate cell plate (day 0). The effect of a particular test compound concentration on cell proliferation/viability is expressed as percentage of the background- and day 0-corrected luminescence reading obtained for cells treated with vehicle only (DMSO, 0.1% final concentration), which is set as 100%, whereas that luminescence reading for wells containing medium is set as −100%. Compound concentrations leading to half-maximal (1050) and total growth inhibition (TGI) were determined using standard four parameter curve fitting.
Background: ATP-based viability assays read luminescence as a measure of living cells.

The test system of another assay is THP-1 cells. As to the kind of experiment: Cell growth inhibition assay (CellTiter-Glo), THP-1. The assay is classed as cell-based. The following applies: Homo sapiens. On the procedure:
as §1, §2

The subject of another assay is K-562 cells. As to the kind of experiment: Cell growth inhibition assay (CellTiter-Glo), K-562. Conditions: for GI50: Homo sapiens, K562. It counts as cell-based, human. The procedure:
as §1, §2

The term GI50 denotes the concentration giving 50% growth inhibition. Low readings indicate more potent growth inhibition, high ones less potent growth inhibition.

On to `CCn1nc(C)c2c1C(=O)N(c1cc(C)c(=O)n(C)c1)C2c1ccc(Cl)cc1F` (centres unmarked) [Example 170, 4-(4-chloro-2-fluorophenyl)-5-(1,5-dimethyl-6-oxo-1,6-dihydropyridin-3-yl)-1-ethyl-3-methyl-4,5-dihydropyrrolo-[3,4-c]pyrazol-6(1H)-one], for which the values for the GI50 in the assay with MV-4-11 cells, in the assay with THP-1 cells and in the assay on K-562 cells were 7.66 nM, 13.4 nM and 48.5 nM, respectively.
The matching figures for `CCc1nn(CCOCC(F)(F)F)c2c1C(c1ccc(Cl)cc1)N(c1cc(OC)c3nnc(C)n3c1)C2=O` (centres unmarked) [Example 108, 4-(4-chlorophenyl)-3-ethyl-5-(8-methoxy-3-methyl-[1,2,4]triazolo[4,3-a]pyridin-6-yl)-1-(2-(2,2,2-trifluoroethoxy)ethyl)-4,5-dihydropyrrolo[3,4-c]pyrazol-6(1H)-one]: 267 nM, 397 nM and 1510 nM.
For `Cc1nn(-c2ccnn2C)c2c1[C@H](c1ccc(Cl)cc1)N(c1cc(C)c3nnc(C)n3c1)C2=O` [Example 124, (S)-4-(4-chlorophenyl)-5-(3,8-dimethyl-[1,2,4]triazolo[4,3-a]pyridin-6-yl)-3-methyl-1-(1-methyl-1H-pyrazol-5-yl)-4,5-dihydropyrrolo[3,4-c]pyrazol-6(1H)-one] the same measures were 296 nM, 695 nM and 2520 nM.
The matching figures for `COc1ncccc1-n1nc(C)c2c1C(=O)N(c1cc(Cl)c(=O)n(C)c1)C2c1ccc(Cl)cc1` (centres unmarked) [Example 72, 5-(5-chloro-1-methyl-6-oxo-1,6-dihydropyridin-3-yl)-4-(4-chlorophenyl)-1-(2-methoxypyridin-3-yl)-3-methyl-4,5-dihydropyrrolo[3,4-c]pyrazol-6(1H)-one]: 100 nM, 223 nM and 766 nM.
Regarding `Cn1cc(N2C(=O)c3c(c(C(F)(F)F)nn3C3CC3)C2c2ccc(Cl)cc2)cc(Cl)c1=O` (centres unmarked) [Example 44, 5-(5-chloro-1-methyl-6-oxo-1,6-dihydropyridin-3-yl)-4-(4-chlorophenyl)-1-cyclopropyl-3-(trifluoromethyl)-4,5-dihydropyrrolo[3,4-c]pyrazol-6(1H)-one], the GI50 in the assay with MV-4-11 cells is 217 nM; in the assay with THP-1 cells, 308 nM; with K-562 cells, 658 nM.
`Cc1nn(C2CC2)c2c1C(c1ccc(Cl)cc1F)N(c1cc(C)c(=O)n(C)c1)C2=O` (centres unmarked) [Example 179, 4-(4-chloro-2-fluorophenyl)-1-cyclopropyl-5-(1,5-dimethyl-6-oxo-1,6-dihydropyridin-3-yl)-3-methyl-4,5-dihydropyrrolo[3,4-c]pyrazol-6(1H)-one]: the GI50 with MV-4-11 cells turned out to be 77.4 nM; in the assay with THP-1 cells, 112 nM; with K-562 cells, 372 nM.
As for `Cc1cc(N2C(=O)c3nn(C4CN(C)C4)c(C)c3C2c2ccc(Cl)cc2)cn(C)c1=O` (centres unmarked) [Example 139, 4-(4-chlorophenyl)-5-(1,5-dimethyl-6-oxo-1,6-dihydropyridin-3-yl)-3-methyl-2-(1-methylazetidin-3-yl)-4,5-dihydropyrrolo-[3,4-c]pyrazol-6(2H)-one], the GI50 with MV-4-11 cells turned out to be 72.9 nM; in the assay on THP-1 cells it was 190 nM; in the assay with K-562 cells, 591 nM.
For `Cc1nn(C2CC2)c2c1C(c1ccc(Cl)cc1)N(c1cc(C)c3nnc(C(F)F)n3n1)C2=O` (centres unmarked) [Example 195, 4-(4-chlorophenyl)-1-cyclopropyl-5-(3-(difluoromethyl)-8-methyl-[1,2,4]triazolo[4,3-b]pyridazin-6-yl)-3-methyl-4,5-dihydropyrrolo-[3,4-c]pyrazol-6(1H)-one] the same measures were 23.9 nM, 30.3 nM and 127 nM.
As for `COc1ncc(-n2nc3c(c2C(F)(F)F)C(c2ccc(Cl)cc2)N(c2cc(Cl)c(=O)n(C)c2)C3=O)c(OC)n1` (centres unmarked) [Example 47, 5-(5-chloro-1-methyl-6-oxo-1,6-dihydropyridin-3-yl)-4-(4-chlorophenyl)-2-(2,4-dimethoxypyrimidin-5-yl)-3-(trifluoromethyl)-4,5-dihydropyrrolo[3,4-c]pyrazol-6(2H)-one], the GI50 in the assay on MV-4-11 cells is 113 nM; with THP-1 cells, 414 nM; in the assay on K-562 cells, 709 nM.
For `COc1ncc(-n2nc(C)c3c2C(=O)N(c2cc(Cl)c(=O)n(C)c2)C3c2ccc(Cl)cc2)c(OC)n1` (centres unmarked) [Example 53, 5-(5-chloro-1-methyl-6-oxo-1,6-dihydropyridin-3-yl)-4-(4-chlorophenyl)-1-(2,4-dimethoxypyrimidin-5-yl)-3-methyl-4,5-dihydropyrrolo[3,4-c]pyrazol-6(1H)-one] the same measures were 249 nM, 374 nM and 953 nM.
The matching figures for `CCc1nn(CCOC)c2c1C(c1ccc(Cl)cc1)N(c1cc(C)c(=O)n(C)c1)C2=O` (centres unmarked) [Example 86, 4-(4-chlorophenyl)-5-(1,5-dimethyl-6-oxo-1,6-dihydropyridin-3-yl)-3-ethyl-1-(2-methoxyethyl)-4,5-dihydropyrrolo[3,4-c]pyrazol-6(1H)-one]: 34.6 nM, 63.8 nM and 229 nM.
As for `Cc1nn(C(=O)N(C)C)c2c1[C@@H](c1ccc(Cl)cc1)N(c1cc(C)c3nnc(C)n3c1)C2=O` [Example 149, (R)-4-(4-chlorophenyl)-5-(3,8-dimethyl-[1,2,4]triazolo[4,3-a]pyridin-6-yl)-N,N,3-trimethyl-6-oxo-5,6-dihydropyrrolo-[3,4-c]pyrazole-1(4H)-carboxamide], the GI50 amounted to 28 nM in the assay with MV-4-11 cells, 68.8 nM with THP-1 cells and 348 nM with K-562 cells.
Consider `Cc1nn(-c2ccnn2C)c2c1[C@@H](c1ccc(Cl)cc1)N(c1cc(C)c3nnc(C)n3c1)C2=O` [Example 125, (R)-4-(4-chlorophenyl)-5-(3,8-dimethyl-[1,2,4]triazolo[4,3-a]pyridin-6-yl)-3-methyl-1-(1-methyl-1H-pyrazol-5-yl)-4,5-dihydropyrrolo[3,4-c]pyrazol-6(1H)-one], for which the GI50 in the assay on MV-4-11 cells came to 18.7 nM; in the assay with THP-1 cells it was 25.8 nM; with K-562 cells, 101 nM. The compound further yielded an IC (TGI) with K-562 cells greater than 10000 nM.
`Cc1nn(C2CC2)c2c1C(c1ccc(C(F)(F)F)cc1)N(c1cc(C)c(=O)n(C)c1)C2=O` (centres unmarked) [Example 97, 1-cyclopropyl-5-(1,5-dimethyl-6-oxo-1,6-dihydropyridin-3-yl)-3-methyl-4-(4-(trifluoromethyl)phenyl)-4,5-dihydropyrrolo-[3,4-c]pyrazol-6(1H)-one]: the GI50 was 68 nM with MV-4-11 cells, 164 nM in the assay on THP-1 cells and 684 nM with K-562 cells.
Take `COc1ncccc1-n1nc(C)c2c1C(=O)N(c1cc(C)c(=O)n(C)c1)C2c1ccc(Cl)cc1` (centres unmarked) [Example 71, 4-(4-chlorophenyl)-5-(1,5-dimethyl-6-oxo-1,6-dihydropyridin-3-yl)-1-(2-methoxypyridin-3-yl)-3-methyl-4,5-dihydropyrrolo-[3,4-c]pyrazol-6(1H)-one]: the GI50 in the assay on MV-4-11 cells stood at 66.6 nM; in the assay with THP-1 cells, 75.6 nM; in the assay with K-562 cells, 345 nM. Also, in the assay with K-562 cells, the IC (TGI) was greater than 10000 nM.
Take `COc1ccccc1-n1nc(C)c2c1C(=O)N(c1cc(C)c3nnc(C)n3c1)C2c1ccc(F)cc1F` (centres unmarked) [Example 177, 4-(2,4-difluorophenyl)-5-(3,8-dimethyl-[1,2,4]triazolo[4,3-a]pyridin-6-yl)-1-(2-methoxyphenyl)-3-methyl-4,5-dihydropyrrolo-[3,4-c]pyrazol-6(1H)-one]: the values for the GI50 in the assay with MV-4-11 cells, in the assay on THP-1 cells and with K-562 cells were 67.5 nM, 64.4 nM and 331 nM, respectively.
The matching figures for `Cc1nn(-c2ccnn2C)c2c1[C@H](c1ccc(Cl)cc1)N(c1cc(C)c(=O)n(C)c1)C2=O` [Example 121, (S)-4-(4-chlorophenyl)-5-(1,5-dimethyl-6-oxo-1,6-dihydropyridin-3-yl)-3-methyl-1-(1-methyl-1H-pyrazol-5-yl)-4,5-dihydropyrrolo-[3,4-c]pyrazol-6(1H)-one]: 830 nM, 2110 nM and 9710 nM.
